Series [1] has as its system horse serum diluted with physiological common-salt solution, 2 mM CaCl2 (simulated dentinal fluid). Briefly: Measurement of the protein precipitation (weight of dried precipitate). It is filed as biochemical. The settings on record: for Precipitate: average of 5 measurements. The method, then:
Furthermore, acids which also have calcium-precipitating properties in addition to protein-precipitating properties are particularly preferred. Protein and calcium-precipitating properties are detected in standardized tests. Protein precipitation is measured as described in Example 6, the acids to be examined in the solution described in Example 5 (2nd component) being present in a concentration of 0.2 M. The acid-containing solution is mixed with the protein solution described in Example 6 and the mass of the obtained precipitate is determined. According to the invention, acids which yield a pellet weight of >25 mg, preferably >30 mg and in particular >40 mg are preferred. The upper limit of the pellet weight is determined by the masses of the components used. Acids which yield a quantitative precipitation under the described conditions are particularly suitable according to the invention.
Furthermore, CaCl2 (2 mM) was added to the diluted protein solution in order to adjust the calcium-ion concentration to that of dentinal fluid.
500 μl of the protein solution was then reacted with […] of the composition to be tested and the mixture was left to stand for 30 minutes at room temperature, centrifuged and the obtained precipitates dried at 75° C. and weighed.
For protein precipitation, the solution (2nd component) described in Example 5 was used which was reacted with phosphonic acid in concentrations of 10 mM to 200 mM (cf. Table 1). 5 precipitations per concentration were carried out and then the average of the determinations was calculated.

The values that follow come from patent publication US20040062743A1, “Acid-containing desensitization agents for teeth” (priority 2002, published 2004).

As to `C=C(COCCP(=O)(O)O)C(=O)O` [Example 1, 2-[4-(dihydroxyphosphoryl)-2-oxa-butyl]-acrylic acid], the melting point (in general, the temperature, or range, at which the solid turns liquid) lay within 119 to 120 °C. The “Protein precipitation (in words)” value in series [1] (150 mM acid) is given as “quantitative”. Moreover, in series [1] (acid concentration 10 mM in solution (2nd component) of Example 5), the Precipitate is 55.3 mg. Also, in series [1] (acid concentration 25 mM in solution (2nd component) of Example 5), the Precipitate is 58.2 mg. Further, in series [1] (acid concentration 50 mM in solution (2nd component) of Example 5), the Precipitate is 58.8 mg. The Precipitate in series [1] (acid concentration 75 mM in solution (2nd component) of Example 5) is given as 69.1 mg. For the same compound, the Precipitate in series [1] (acid concentration 100 mM in solution (2nd component) of Example 5) is recorded as 70.8 mg. Also, the Precipitate in series [1] (acid concentration 150 mM in solution (2nd component) of Example 5) was 74.2 mg. Moreover, the Precipitate in series [1] (acid concentration 200 mM in solution (2nd component) of Example 5) is 72.3 mg.
